This is an account of results in patent US20080167376A1, “Methods and products which utilize N-acyl-L-aspartic acid” (DMI BIOSCIENCES, INC., priority 2003, published 2008).

The test system of experiment [1] is PGE2 production in ionomycin-stimulated STTG cells. Description: Prostaglandin E2 assay (PGE2 EIA) in ionomycin-stimulated STTG cells. It is filed as cell-based, human. The settings on record: for decrease in PGE2 release / effect on total PGE2 release: FIG. 2. The method, then: FIG. 1. Percent inhibition of prostaglandin E2 (PGE2) production in ionomycin-stimulated STTG cells. PGE2 production was assayed in ionomycin-stimulated STTG cells treated with N-acetyl-L-aspartate (NAA), aspirin (Asp) or dexamethasone (Dex) using a PGE2 enzyme immunoassay described in Example 1. Cells were pre-incubated for 1 hour with NAA, Asp or Dex and then stimulated with 1 μM ionomycin at 37° C., 10% CO2 for 24 hours. Percent inhibition of PGE2 production was measured compared to ionomycin-stimulated STTG cells in the absence of NAA, Asp or Dex. Data represent mean ±SD of three separate experiments. Asterisks indicate a significant difference between untreated, ionomycin-stimulated STTG cells and treated, ionomycin-stimulated STTG cells: *p<0.01. Iono=ionomycin.
FIG. 2. Effect of glutamate receptor antagonists and NAA on PGE2 release in STTG cells stimulated with ionomycin. PGE2 production was assayed in ionomycin-stimulated STTG cells treated with NAA or potential glutamate receptor antagonists (AP-4 and GDE) using a PGE2 enzyme immunoassay described in Example 1. Cells were pre-incubated for 1 hour with NAA or the potential glutamate receptor antagonists and then cells were stimulated with 1 μM ionomycin at 37° C., 10% CO2 for 24 hours. Percent inhibition of PGE2 production was measured compared to ionomycin-stimulated STTG cells in the absence of NAA or potential glutamate receptor antagonists. Data represent mean ±SD of three separate experiments. Asterisks indicate a significant difference between untreated, ionomycin-stimulated STTG cells and treated, ionomycin-stimulated STTG cells: *p<0.01. AP-4=L-2-amino-4-phosphonobutyric acid, and GDE=L-glutamic acid diethyl ester.
Prostaglandin E2 Assay. Human STTG astroglial cells (CRL-1718, American […], Rockville, Mass.) were grown in 75 cm^2 flasks (10% CO2, 37° C.) containing AGM medium (BioWhittaker, Walkersville, Md.) to near confluency (>90%) prior to subculturing with trypsin/EDTA. Cells were plated on a 24-well plate at 50,000 cells/well and incubated for two days to near confluency prior to dosing with inhibitors. N-Acetyl aspartate (NAA, Sigma-Aldrich, St. Louis, Mo.) was dissolved in AGM medium and brought back to a pH of 7.4. Stock solutions of aspirin were dissolved in DMSO and then diluted in culture medium. DMSO concentrations were never >0.5% in the medium bathing the cells. Cells were then dosed with potential prostaglandin E2 (PGE2) inhibitors (NAA, L-2-Amino-4-phosphonobutyric acid [L-AP-4, Sigma-Aldrich, St. Louis, Mo.], L-glutamic acid diethyl ester [GDE, generous gift from Nagaraja K. R. Rao, DMI Synthesis UK Ltd.], aspirin, or dexamethasone). After a 1-hour incubation, the cells were then stimulated with 1 μM ionomycin (Sigma-Aldrich, St. Louis, Mo.) for 24 hours at 37° C. Total volume per well was 1 mL. Then, 0.5 mL of culture medium was removed from each well and immediately assayed for PGE2 using the Prostaglandin E2 enzyme immunoassay (EIA) system (Amersham, Piscataway, N.J.). The remaining medium containing the cells was assayed for cell viability using cell titer reagent (G358A, Promega, Madison, Wis.).

For a further experiment, the target named is T1, COX-2 (Homo sapiens, UniProt P35354).
T1 construct: purchased Oxford Biomedical, Oxford, Mich
T1 sequence (P35354 18-604): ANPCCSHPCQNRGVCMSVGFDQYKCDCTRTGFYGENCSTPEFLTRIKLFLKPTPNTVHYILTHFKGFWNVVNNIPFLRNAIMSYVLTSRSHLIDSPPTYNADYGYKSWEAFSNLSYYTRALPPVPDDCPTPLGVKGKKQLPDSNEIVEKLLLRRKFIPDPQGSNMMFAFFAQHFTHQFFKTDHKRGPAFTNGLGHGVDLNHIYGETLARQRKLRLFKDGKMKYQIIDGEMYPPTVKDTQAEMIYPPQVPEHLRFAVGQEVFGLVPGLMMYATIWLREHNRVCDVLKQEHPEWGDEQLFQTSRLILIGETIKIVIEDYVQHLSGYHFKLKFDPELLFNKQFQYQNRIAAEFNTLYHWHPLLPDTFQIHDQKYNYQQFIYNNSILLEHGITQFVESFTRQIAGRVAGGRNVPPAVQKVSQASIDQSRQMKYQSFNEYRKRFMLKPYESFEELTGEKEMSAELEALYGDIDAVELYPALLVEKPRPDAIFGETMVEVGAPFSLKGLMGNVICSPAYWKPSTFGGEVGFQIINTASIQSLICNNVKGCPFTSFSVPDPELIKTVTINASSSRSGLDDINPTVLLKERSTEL
Description: COX-2 activity assay (PGE2 EIA system). Type of experiment: biochemical. The settings on record: concentrations up to 20 mM; 0.05 units COX-2, 1 μM arachidonic acid; data not shown. How it is done:
COX-2 Activity Assay. Modifying the method of Ouellet and co-workers (Proc. Natl. Acad. Sci. USA, 98:14583-14588 (2001)), COX-2 activity was determined using the PGE2 EIA system. Briefly, COX-2 (Oxford Biomedical, Oxford, Mich.) was incubated at 37° C. for 5 minutes with arachidonic acid (AA), 500 μM phenol, and 1 μM hematin in a 100 mM phosphate buffer (pH 6.5). The reaction was stopped with a solution containing dH2O/MeOH/1 M citric acid (30:4:1). After optimization of COX-2 and AA, 0.05 units of COX-2 per incubation and 1 μM of AA were determined to be optimal. Varying concentrations of NAA and aspirin (pH 6.5) were pre-incubated with COX-2, hematin, and phenol for 15 minutes at 37° C. prior to AA addition. The reaction was stopped after 5-minute incubation with AA. PGE2 levels were determined using PGE2 EIA system as described.
Effect of NAA on COX-2 activity and mRNA. To determine if NAA was inhibiting the cyclooxygenase enzyme directly, a COX-2 activity assay was developed using the PGE2 EIA system. After optimizing for COX-2 and arachidonic acid (AA), a concentration of 0.05 units/incubation of COX-2 and 1 μM of AA was determined to be optimal.

Experiment [2] concerns COX-2 mRNA in STTG astroglial cells. Description: RT-PCR of COX-2 in STTG cells. Type of experiment: cell-based, human. Conditions: 5 and 10 mM, data not shown. The method, then:
RT-PCR of COX-2. STTG cells were grown to near confluency on 25 cm^2 cell culture flasks. Cells were dosed with 5 or 10 mM NAA and incubated for 4 or 24 hours at 37° C., 10% CO2. RNA was isolated using Rneasy Mini Kit (Qiagen, Valencia, Calif.) and quantitated using A260/A280 assay. Then, 2 μg of RNA was converted to cDNA using the Omniscript Reverse Transcriptase Kit (Qiagen, Valencia, Calif.). PCR was next performed using HotStarTaq Master Mix (Qiagen, Valencia, Calif.). COX-2 forward ([…] [SEQ ID NO:1]) and reverse primers ([…] [SEQ ID NO:2]) were obtained from Qiagen (Valencia, Calif.) and used at a concentration of 0.5 μM. The PCR thermal cycler program consisted of: 1) 1 denaturation cycle of 15 minutes at 95° C.; 2) 30 cycles of 94° C. (30 sec denaturation), 55° C. (30 sec annealing), and 72° C. (30 sec elongation); and 3) 1 elongation cycle of 10 minutes at 72° C. PCR product was then loaded on a 2% (w/v) agarose gel and stained with ethidium bromide.

Experiment [3] relates to COX-2 protein in STTG cells. Description: Western blot of total COX-2 protein in STTG cells. Conditions: 24 h, 200 μM aspirin, 10 mM NAA (FIG. 3); for effect on total amount of COX-2 protein: STTG cells stimulated with 1 or 2 ng/ml IL-1β; for effect on resting COX-2 protein: unstimulated STTG cells. It is filed as cell-based, human. The method, then: FIG. 3. Representative Western blot for total COX-2 protein in IL-1β-stimulated STTG cells treated with NAA and aspirin. Cells were incubated for 24 hours at 37° C., 10% CO2. Cells were dosed as follows: untreated (lane 1), 200 μM aspirin (lane 2), 10 mM NAA (lane 3), 1 ng/ml IL-1β (lane 4), 2 ng/ml IL-1β (lane 5), 1 ng/ml IL-1β+200 μM aspirin (lane 6), 2 ng/ml IL-1β+200 μM aspirin (lane 7), 1 ng/ml IL-1β+10 mM NAA (lane 8), or 2 ng/ml IL-1β+10 mM NAA (lane 9). Cells were lysed and COX-2 protein was immunoprecipitated overnight (1:500 goat anti-human COX-2) from 400 μg total lysate protein. Immunoprecipitate was loaded on 4-20% tris-glycine gel and transferred overnight onto nitrocellulose membrane. Total COX-2 protein was quantitated using a goat anti-human COX-2 antibody (1:100) and 1:5,000 rabbit anti-goat IgG. The membrane was visualized by chemiluminescence.
Western Blot of COX-2. STTG cells were treated with either NAA or aspirin and immediately stimulated with 1 or 2 ng/ml IL-1β (Sigma-Aldrich, St. Louis, Mo.). After a 24-hour incubation at 37° C. (10% CO2), cells were lysed and total protein was quantitated by BCA (Pierce, Rockford, Ill.). Then, 0.5 mg lysate was immunoprecipitated using 1:500 goat anti-human COX-2 (Santa Cruz Biotechnology, Santa Cruz, Calif.) and Protein AG beads (Pierce, Rockford, Ill.) overnight at 4° C. Samples were loaded on a 4-20% Tris-Glycine gel (Invitrogen, Carlsbad, Calif.) and transferred to a nitrocellulose membrane overnight. The membrane was blocked with 5% Blotto (Santa Cruz Biotechnology, Santa Cruz, Calif.), and COX-2 was detected using 1:100 goat anti-human COX-2 (Santa Cruz Biotechnology, Santa Cruz, Calif.) and 1:5,000 rabbit anti-goat IgG HRP (Santa Cruz Biotechnology, Santa Cruz, Calif.). The membrane was visualized using ECL (Amersham, Piscataway, N.J.) and exposed to X-ray film.

In experiment [4] the test system is activated NFκB in IL-1β-stimulated STTG cells. The experiment is described as follows: NFκB assay (ELISA-based) in IL-1β-stimulated STTG cells. It is filed as cell-based, human. The settings on record: 1 ng/ml IL-1β, 24 h, FIG. 4. The method, then: FIG. 4. Effect of NAA on NFκB levels in STTG cells stimulated with IL-1. Cells were dosed with NAA and immediately stimulated with 1 ng/ml IL-1 for 24 hours at 37° C., 10% CO2. Cells were lysed, and 10 μg of total protein was assayed for activated NFκB levels using an ELISA-based method. Data represent mean ±SD of three separate experiments. Percentages are percent of inhibition of production of activated NFκB. Asterisks indicate a significant difference between untreated, IL-1β-stimulated STTG cells and NAA-treated, IL-1β-stimulated STTG cells: *p<0.005.
NFκB Assay. STTG cells were treated with NAA and stimulated immediately with 1 ng/ml IL-1β. After a 24-hour incubation, cells were lysed and total protein was quantitated using the BCA™ Protein Assay Kit (Pierce, Rockford, Ill.). Then, 10 μg of protein lysate was assayed for NFκB using the TransAM™ NFκB Family Transcription Factor Assay Kit (Catalog No. 43296, Active Motif, Carlsbad, Calif.).
Effect of NAA on NFκB activation. Activated NFκB was quantitated using a 96-well plate coated with an oligonucleotide that contains an NFκB consensus-binding site. This site specifically binds activated NFκB contained in cell extracts.

Where [5] appears, read: 5 mM, ionomycin-stimulated STTG cells.
[6] abbreviates: 10 mM, ionomycin-stimulated STTG cells.
[7] abbreviates: ionomycin-stimulated STTG cells, result in words.

In the case of `CCOC(=O)CC[C@H](N)C(=O)OCC` [GDE, L-glutamic acid diethyl ester, reference compound], the entries for the “decrease in PGE2 release” value in experiment [1] (setting [5]) and in experiment [1] (setting [6]) were 40% and 60%, respectively. Also, in experiment [1] (setting [7]), the “effect on total PGE2 release” value is “did decrease”.
With `N[C@@H](CCP(=O)(O)O)C(=O)O` [L-AP-4, L-2-amino-4-phosphonobutyric acid, reference compound], in experiment [1] (setting [7]), the “effect on total PGE2 release” value was “did decrease”.
As for `CC(=O)N[C@@H](CC(=O)O)C(=O)O` [NAA, N-acetyl-L-aspartic acid], the “decrease in PGE2 production” value in experiment [1] (5 mM, 1 h pre-incubation, 1 μM ionomycin 24 h, STTG cells, FIG. 1) was 56%; in experiment [1] (10 mM, 1 h pre-incubation, 1 μM ionomycin 24 h, STTG cells, FIG. 1), 76%. Further, the “decrease in PGE2 release” value in experiment [1] (setting [5]) was 60%; in experiment [1] (setting [6]), 90%. Besides, in experiment [1] (Homo sapiens, 20 mM, 1 h pre-incubation, 1 μM ionomycin 24 h, STTG cells, FIG. 1, read-out: decrease in PGE2 production (inhibition)), the inhibition (as a rule, the relative decrease from the control value, in per cent) at 20000 µM is greater than 95%. The “effect on COX-2 activity” value on COX-2 is on record as “no effect”. Besides, in experiment [2], the “effect on total COX-2 mRNA” value is “did not decrease”. Moreover, in experiment [3], the “effect on total amount of COX-2 protein” value is on record as “decreased”. Further, in experiment [3], the “effect on resting COX-2 protein” value is on record as “no effect”. Moreover, the “decrease in NFκB production (activated NFκB)” value in experiment [4] (10 mM) came to 17.5%; in experiment [4] (20 mM), 40%.
Regarding `CC(=O)Oc1ccccc1C(=O)O` [aspirin, reference compound], the “inhibition of cyclooxygenases as evidenced by lack of PGE2 production” value in experiment [1] (ionomycin-stimulated STTG cells, FIG. 1, result in words) was “complete inhibition”. Moreover, in experiment [3], the “effect on total amount of COX-2 protein” value is listed as “decreased” and the “effect on resting COX-2 protein” value is reported as “decreasing effect”.
